Assays:
Assay in all cases: radiometric filter-binding kinase assay
AURKA (human) = AURKA (human) (UniProt O14965)
BRSK2 (human) = BRSK2 (human) (UniProt Q8IWQ3)
CDK2 CCNA2 (human) = CDK2 CCNA2 (human) (UniProt P20248+P24941)
CHEK1 (human) = CHEK1 (human) (UniProt O14757)
CHEK2 (human) = CHEK2 (human) (UniProt O96017)
CLK2 (human) = CLK2 (human) (UniProt P49760)
DAPK1 (human) = DAPK1 (human) (UniProt P53355)
EEF2K (human) = EEF2K (human) (UniProt O00418)
EPHB4 (human) = EPHB4 (human) (UniProt P54760)
Sequence of EPHB4 (human) (P54760 whole entry, looked up): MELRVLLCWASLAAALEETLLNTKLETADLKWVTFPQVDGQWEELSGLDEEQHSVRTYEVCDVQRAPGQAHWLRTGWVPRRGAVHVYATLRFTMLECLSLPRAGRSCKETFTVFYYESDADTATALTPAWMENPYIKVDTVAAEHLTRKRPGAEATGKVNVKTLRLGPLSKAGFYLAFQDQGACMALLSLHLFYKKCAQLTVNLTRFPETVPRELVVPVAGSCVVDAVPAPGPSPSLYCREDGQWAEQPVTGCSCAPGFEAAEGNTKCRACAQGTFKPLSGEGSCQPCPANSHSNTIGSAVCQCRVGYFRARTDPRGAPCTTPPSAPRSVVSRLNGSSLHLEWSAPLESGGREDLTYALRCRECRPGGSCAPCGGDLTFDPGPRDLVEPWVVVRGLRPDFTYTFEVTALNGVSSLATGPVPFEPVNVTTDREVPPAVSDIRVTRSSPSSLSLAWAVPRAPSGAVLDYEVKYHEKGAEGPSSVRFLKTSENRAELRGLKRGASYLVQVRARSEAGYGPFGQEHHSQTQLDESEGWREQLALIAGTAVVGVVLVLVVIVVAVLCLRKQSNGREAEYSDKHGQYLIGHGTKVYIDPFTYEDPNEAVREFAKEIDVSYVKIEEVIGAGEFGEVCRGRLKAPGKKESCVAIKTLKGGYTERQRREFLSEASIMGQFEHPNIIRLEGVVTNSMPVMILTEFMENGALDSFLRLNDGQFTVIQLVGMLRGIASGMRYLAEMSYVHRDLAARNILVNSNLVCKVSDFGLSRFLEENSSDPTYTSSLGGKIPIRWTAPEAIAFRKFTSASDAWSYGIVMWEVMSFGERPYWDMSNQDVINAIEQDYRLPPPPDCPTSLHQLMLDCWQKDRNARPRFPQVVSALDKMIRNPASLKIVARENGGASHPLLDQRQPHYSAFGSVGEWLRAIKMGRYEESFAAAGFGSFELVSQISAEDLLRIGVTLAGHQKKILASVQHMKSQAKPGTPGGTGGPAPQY

ERBB4 (human) = ERBB4 (human) (UniProt Q15303)
FLT1 (human) = FLT1 (human) (UniProt P17948)
GCK (human) = GCK (human) (UniProt Q12851)
HIPK1 (human) = HIPK1 (human) (UniProt Q86Z02)
Sequence of HIPK1 (human) (Q86Z02 whole entry, looked up): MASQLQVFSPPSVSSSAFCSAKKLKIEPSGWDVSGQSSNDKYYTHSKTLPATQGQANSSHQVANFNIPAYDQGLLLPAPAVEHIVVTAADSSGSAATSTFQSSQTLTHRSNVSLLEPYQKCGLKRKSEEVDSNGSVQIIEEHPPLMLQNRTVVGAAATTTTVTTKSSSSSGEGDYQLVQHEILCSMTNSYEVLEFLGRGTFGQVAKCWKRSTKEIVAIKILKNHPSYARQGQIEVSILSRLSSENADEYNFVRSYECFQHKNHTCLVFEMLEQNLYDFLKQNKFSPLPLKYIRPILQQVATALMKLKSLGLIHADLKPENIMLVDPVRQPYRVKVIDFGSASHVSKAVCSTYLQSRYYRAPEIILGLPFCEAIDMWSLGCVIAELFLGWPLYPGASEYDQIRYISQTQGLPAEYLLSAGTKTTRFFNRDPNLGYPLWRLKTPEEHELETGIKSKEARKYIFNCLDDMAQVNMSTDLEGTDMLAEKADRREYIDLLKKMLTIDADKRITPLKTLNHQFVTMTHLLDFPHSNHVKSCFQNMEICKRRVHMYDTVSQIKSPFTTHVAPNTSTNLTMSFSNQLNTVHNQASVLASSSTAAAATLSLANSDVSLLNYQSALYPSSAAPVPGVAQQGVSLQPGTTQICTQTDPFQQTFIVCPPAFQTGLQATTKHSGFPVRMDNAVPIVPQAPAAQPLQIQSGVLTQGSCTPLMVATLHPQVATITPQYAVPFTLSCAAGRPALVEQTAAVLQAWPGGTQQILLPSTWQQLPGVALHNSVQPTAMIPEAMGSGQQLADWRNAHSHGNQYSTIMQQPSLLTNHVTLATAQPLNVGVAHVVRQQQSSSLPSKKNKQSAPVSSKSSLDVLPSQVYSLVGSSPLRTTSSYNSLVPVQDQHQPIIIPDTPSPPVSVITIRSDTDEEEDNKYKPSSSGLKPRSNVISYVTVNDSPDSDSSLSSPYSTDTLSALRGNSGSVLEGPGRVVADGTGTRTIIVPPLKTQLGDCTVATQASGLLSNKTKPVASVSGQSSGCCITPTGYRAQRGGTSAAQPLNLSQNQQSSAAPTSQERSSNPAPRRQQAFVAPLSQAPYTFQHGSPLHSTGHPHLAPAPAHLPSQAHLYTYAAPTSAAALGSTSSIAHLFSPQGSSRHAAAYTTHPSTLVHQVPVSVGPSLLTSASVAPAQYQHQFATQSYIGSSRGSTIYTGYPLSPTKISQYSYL

HIPK3 (human) = HIPK3 (human) (UniProt Q9H422)
JAK2 JH1 JH2 (human) = JAK2 JH1 JH2 (human) (UniProt O60674)
MAP3K1 (human) = MAP3K1 (human) (UniProt Q13233)
MAP3K5 (human) = MAP3K5 (human) (UniProt Q99683)
Sequence of MAP3K5 (human) (Q99683 whole entry, looked up): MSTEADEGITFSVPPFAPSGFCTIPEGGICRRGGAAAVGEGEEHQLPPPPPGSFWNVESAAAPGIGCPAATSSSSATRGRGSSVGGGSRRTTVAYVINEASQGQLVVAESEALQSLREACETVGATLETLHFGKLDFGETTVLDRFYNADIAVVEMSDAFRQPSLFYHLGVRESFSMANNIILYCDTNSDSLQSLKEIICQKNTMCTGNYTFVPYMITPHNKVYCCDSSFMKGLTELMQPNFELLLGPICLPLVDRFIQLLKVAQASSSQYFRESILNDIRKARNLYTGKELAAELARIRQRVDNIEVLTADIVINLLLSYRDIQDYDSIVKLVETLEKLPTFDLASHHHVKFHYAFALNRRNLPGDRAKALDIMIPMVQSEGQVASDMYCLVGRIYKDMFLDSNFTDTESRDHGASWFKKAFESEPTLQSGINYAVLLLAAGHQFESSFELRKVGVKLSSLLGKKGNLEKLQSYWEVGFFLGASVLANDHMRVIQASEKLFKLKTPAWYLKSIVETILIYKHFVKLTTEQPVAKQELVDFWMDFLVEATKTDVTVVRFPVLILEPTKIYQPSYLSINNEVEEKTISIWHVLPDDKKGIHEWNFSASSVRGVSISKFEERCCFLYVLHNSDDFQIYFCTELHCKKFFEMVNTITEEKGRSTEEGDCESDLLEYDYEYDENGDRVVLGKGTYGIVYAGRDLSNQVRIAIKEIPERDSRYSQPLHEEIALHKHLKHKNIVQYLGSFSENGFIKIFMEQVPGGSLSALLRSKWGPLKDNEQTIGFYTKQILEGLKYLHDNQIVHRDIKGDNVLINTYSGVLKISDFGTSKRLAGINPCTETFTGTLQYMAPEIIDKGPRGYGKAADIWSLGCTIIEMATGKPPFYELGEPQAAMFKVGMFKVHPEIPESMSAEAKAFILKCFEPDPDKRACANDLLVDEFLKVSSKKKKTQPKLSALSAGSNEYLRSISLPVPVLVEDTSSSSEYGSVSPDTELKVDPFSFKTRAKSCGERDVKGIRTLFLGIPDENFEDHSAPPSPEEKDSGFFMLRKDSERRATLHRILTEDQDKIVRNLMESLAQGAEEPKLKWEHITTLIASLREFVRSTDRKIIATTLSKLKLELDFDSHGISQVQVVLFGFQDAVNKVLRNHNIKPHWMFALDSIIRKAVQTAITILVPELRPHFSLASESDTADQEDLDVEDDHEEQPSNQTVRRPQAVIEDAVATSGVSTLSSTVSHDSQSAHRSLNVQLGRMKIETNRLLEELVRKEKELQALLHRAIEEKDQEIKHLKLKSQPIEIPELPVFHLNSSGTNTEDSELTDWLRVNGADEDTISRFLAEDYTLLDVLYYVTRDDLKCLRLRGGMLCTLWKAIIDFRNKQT

MAPK1 (human) = MAPK1 (human) (UniProt P28482); conditions: compound 0.1 µM

Sequence of DAPK1 (human) (P53355 whole entry, looked up): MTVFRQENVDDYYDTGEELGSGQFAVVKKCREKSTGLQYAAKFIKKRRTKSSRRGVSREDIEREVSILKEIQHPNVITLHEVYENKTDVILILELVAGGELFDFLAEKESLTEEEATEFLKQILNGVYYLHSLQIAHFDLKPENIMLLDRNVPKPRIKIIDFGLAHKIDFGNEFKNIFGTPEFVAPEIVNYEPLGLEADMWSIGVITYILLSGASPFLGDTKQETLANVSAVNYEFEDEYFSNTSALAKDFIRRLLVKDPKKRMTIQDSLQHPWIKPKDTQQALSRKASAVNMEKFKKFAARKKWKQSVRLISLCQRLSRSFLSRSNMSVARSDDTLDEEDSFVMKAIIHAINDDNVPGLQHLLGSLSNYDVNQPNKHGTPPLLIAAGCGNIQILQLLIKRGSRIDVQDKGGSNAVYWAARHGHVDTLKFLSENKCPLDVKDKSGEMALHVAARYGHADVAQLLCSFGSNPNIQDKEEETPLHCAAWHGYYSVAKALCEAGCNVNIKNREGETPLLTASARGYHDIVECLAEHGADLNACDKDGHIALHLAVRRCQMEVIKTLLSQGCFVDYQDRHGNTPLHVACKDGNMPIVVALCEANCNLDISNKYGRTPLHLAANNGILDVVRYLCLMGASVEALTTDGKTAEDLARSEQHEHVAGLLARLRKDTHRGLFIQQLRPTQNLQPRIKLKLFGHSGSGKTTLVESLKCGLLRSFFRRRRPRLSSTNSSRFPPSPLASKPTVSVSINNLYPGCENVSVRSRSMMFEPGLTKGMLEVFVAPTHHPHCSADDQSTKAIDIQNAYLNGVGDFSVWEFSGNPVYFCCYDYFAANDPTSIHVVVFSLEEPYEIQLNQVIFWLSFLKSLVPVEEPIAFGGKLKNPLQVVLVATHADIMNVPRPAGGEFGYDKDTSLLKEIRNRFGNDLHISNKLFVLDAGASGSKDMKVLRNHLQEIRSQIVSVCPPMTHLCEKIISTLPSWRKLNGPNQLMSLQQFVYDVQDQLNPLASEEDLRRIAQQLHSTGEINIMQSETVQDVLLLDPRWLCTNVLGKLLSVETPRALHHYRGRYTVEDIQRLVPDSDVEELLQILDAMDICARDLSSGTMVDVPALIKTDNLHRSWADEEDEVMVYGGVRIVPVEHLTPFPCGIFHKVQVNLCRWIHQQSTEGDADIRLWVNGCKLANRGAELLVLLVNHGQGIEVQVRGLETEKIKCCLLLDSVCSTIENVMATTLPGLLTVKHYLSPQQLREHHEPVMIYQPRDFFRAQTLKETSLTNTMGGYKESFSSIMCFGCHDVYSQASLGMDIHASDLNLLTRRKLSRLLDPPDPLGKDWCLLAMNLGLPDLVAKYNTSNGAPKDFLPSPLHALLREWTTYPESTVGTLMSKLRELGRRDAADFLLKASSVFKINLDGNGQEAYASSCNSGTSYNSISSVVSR

## CCCCCc1ccc(/C=C/[C@H](O)[C@@H](CO)NC)cc1
AURKA (human); compound 0.1 µM
  residual activity: 116%
AURKA (human); compound 1.0 µM
  residual activity: 105%
AURKA (human); compound 10.0 µM
  residual activity: 92%
BRSK2 (human); compound 0.1 µM
  residual activity: 130%
BRSK2 (human); compound 1.0 µM
  residual activity: 108%
BRSK2 (human); compound 10.0 µM
  residual activity: 108%
CDK2 CCNA2 (human); compound 0.1 µM
  residual activity: 98%
CDK2 CCNA2 (human); compound 1.0 µM
  residual activity: 79%
CDK2 CCNA2 (human); compound 10.0 µM
  residual activity: 88%
CHEK1 (human); compound 0.1 µM
  residual activity: 96%
CHEK1 (human); compound 1.0 µM
  residual activity: 92%
CHEK1 (human); compound 10.0 µM
  residual activity: 86%
CHEK2 (human); compound 0.1 µM
  residual activity: 92%
CHEK2 (human); compound 1.0 µM
  residual activity: 84%
CHEK2 (human); compound 10.0 µM
  residual activity: 82%
CLK2 (human); compound 0.1 µM
  residual activity: 106%
CLK2 (human); compound 1.0 µM
  residual activity: 104%
CLK2 (human); compound 10.0 µM
  residual activity: 97%
DAPK1 (human); compound 0.1 µM
  residual activity: 109%
DAPK1 (human); compound 1.0 µM
  residual activity: 101%
DAPK1 (human); compound 10.0 µM
  residual activity: 103%
EEF2K (human); compound 0.1 µM
  residual activity: 93%
EEF2K (human); compound 1.0 µM
  residual activity: 76%
EEF2K (human); compound 10.0 µM
  residual activity: 69%
EPHB4 (human); compound 0.1 µM
  residual activity: 122%
EPHB4 (human); compound 1.0 µM
  residual activity: 101%
EPHB4 (human); compound 10.0 µM
  residual activity: 123%
ERBB4 (human); compound 0.1 µM
  residual activity: 127%
ERBB4 (human); compound 10.0 µM
  residual activity: 105%
FLT1 (human); compound 0.1 µM
  residual activity: 95%
FLT1 (human); compound 1.0 µM
  residual activity: 81%
FLT1 (human); compound 10.0 µM
  residual activity: 83%
GCK (human); compound 0.1 µM
  residual activity: 86%
GCK (human); compound 1.0 µM
  residual activity: 72%
GCK (human); compound 10.0 µM
  residual activity: 71%
HIPK1 (human); compound 0.1 µM
  residual activity: 92%
HIPK1 (human); compound 1.0 µM
  residual activity: 112%
HIPK1 (human); compound 10.0 µM
  residual activity: 94%
HIPK3 (human); compound 0.1 µM
  residual activity: 118%
HIPK3 (human); compound 1.0 µM
  residual activity: 112%
HIPK3 (human); compound 10.0 µM
  residual activity: 102%
JAK2 JH1 JH2 (human); compound 0.1 µM
  residual activity: 118%
JAK2 JH1 JH2 (human); compound 1.0 µM
  residual activity: 98%
JAK2 JH1 JH2 (human); compound 10.0 µM
  residual activity: 100%
MAP3K1 (human); compound 0.1 µM
  residual activity: 93%
MAP3K1 (human); compound 1.0 µM
  residual activity: 99%
MAP3K1 (human); compound 10.0 µM
  residual activity: 89%
MAP3K5 (human); compound 0.1 µM
  residual activity: 115%
MAP3K5 (human); compound 1.0 µM
  residual activity: 99%
MAP3K5 (human); compound 10.0 µM
  residual activity: 94%
MAPK1 (human)
  residual activity: 98%

— the kinase profiling compilation of Christmann-Franck et al. (2016)
